We go through four molecules from patent US4169944A, “Cholesterol biosynthesis inhibitors” (University Patents, Inc., priority 1977, dated 1979).

In data set [1] the target is T1, HMG-CoA reductase (Rattus norvegicus, UniProt P51639).
T1 construct: from tissue; host or cells: rat liver microsomes, crude soluble extract
T1 sequence (P51639 1-887): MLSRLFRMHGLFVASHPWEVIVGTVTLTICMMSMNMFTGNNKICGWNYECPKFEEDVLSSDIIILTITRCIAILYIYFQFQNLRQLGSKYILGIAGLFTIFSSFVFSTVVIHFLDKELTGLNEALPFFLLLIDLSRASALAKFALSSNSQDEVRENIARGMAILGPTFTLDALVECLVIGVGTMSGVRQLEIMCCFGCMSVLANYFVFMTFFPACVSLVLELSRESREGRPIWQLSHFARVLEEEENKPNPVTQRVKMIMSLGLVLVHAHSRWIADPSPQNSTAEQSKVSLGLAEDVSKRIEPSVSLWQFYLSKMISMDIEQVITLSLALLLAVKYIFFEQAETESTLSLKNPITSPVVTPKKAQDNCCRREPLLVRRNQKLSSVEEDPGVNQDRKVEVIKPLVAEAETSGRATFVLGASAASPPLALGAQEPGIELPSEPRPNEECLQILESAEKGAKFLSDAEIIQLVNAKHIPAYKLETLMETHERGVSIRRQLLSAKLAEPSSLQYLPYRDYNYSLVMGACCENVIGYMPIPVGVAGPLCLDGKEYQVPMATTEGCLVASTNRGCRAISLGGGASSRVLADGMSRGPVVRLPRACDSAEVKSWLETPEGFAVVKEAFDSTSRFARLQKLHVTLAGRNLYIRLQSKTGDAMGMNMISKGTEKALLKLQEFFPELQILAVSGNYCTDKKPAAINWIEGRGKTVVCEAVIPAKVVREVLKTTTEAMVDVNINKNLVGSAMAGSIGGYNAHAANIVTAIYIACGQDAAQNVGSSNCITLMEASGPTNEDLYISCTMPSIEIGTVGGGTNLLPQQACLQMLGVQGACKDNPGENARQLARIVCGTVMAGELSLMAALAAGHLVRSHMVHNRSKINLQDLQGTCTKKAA
Description: HMG-CoA reductase activity in crude soluble extract of rat liver microsomes. Format: biochemical. The conditions noted are these: for HMG-CoA reductase activity: 1.98 without inhibitor. As for the experimental part: Crude soluble extract from rat liver microsomes was prepared as previously described (2). HMG-CoA reductase activity and incubation conditions were conducted as previously described (2,3).
The relative potencies, as HMG-CoA reductase inhibitors, of trifluoro-HMG-CoA, trifluoro-HMG and trifluoro-HMG anhydride were investigated.
The inhibition of HMG-CoA reductase activity was measured in crude soluble extract from rat liver microsomes. Crude soluble extract from rat liver microsomes was prepared as previously described (2). HMG-CoA reductase activity and incubation conditions were conducted as previously described (2,3). The HMG-CoA reductase activity of the crude soluble extract in the absence of inhibitor was considered as 100% and activities measured in the presence of inhibitors were compared to this norm.
(Microsomes from liver hold many membrane-bound enzymes, among them those of drug oxidation.)

Data set [2] has as its target T1, HMG-CoA reductase. The experiment in a line: Inhibition of purified HMG-CoA reductase. Format: biochemical. The conditions noted are these: 1.1 mM, purified enzyme. As to the method:
Hmg-coA reductase was purified from rat liver microsomes as previously described (2). HMG-CoA reductase activity assay and incubation conditions were conducted as previously described (2,3).

Data set [3] addresses T2, rat liver microsomal HMG-CoA reductase (Rattus norvegicus, UniProt P51639).
T2 construct: rat liver microsomal HMG-CoA reductase; from tissue; host or cells: rat liver microsomes
T2 sequence (P51639 1-887): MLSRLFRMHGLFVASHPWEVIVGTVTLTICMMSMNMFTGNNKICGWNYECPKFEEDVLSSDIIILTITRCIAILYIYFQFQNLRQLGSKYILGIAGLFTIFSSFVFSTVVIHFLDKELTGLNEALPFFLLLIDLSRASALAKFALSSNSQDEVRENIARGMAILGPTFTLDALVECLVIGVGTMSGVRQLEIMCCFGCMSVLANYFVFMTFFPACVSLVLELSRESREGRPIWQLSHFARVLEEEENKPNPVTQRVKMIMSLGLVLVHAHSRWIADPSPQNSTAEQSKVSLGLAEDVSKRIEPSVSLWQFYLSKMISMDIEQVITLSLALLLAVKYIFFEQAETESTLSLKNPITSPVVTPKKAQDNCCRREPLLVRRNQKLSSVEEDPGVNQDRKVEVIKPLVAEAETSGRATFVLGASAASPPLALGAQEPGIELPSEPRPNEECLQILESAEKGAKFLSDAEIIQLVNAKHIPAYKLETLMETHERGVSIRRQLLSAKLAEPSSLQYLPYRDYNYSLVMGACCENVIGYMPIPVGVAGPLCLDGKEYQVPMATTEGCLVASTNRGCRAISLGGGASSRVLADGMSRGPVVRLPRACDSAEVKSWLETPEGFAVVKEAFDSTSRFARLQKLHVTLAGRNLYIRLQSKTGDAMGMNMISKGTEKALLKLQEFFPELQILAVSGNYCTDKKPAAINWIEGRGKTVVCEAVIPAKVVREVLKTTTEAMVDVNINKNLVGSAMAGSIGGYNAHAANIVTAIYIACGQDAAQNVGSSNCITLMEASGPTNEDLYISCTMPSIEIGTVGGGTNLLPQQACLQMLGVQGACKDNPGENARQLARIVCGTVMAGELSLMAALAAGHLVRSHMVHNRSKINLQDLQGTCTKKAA
The experiment in a line: Kinetics of inhibition of rat liver microsomal HMG-CoA reductase. Format: biochemical. As for the experimental part:
Table III summarizes the results of an experiment in which the kinetics of inhibition of rat liver microsomal HMG-CoA reductase by trifluoro-HMG-CoA were measured.
The velocity of mevalonate formation was first measured in the absence of trifluoro-HMG-CoA, varying the concentration of the substrate [3-^14 C]HMG-CoA. Then the same experiment was conducted in the presence of trifluoro-HMG-CoA (600 μM). The data were analyzed by means of an Eadie-Hofstee plot.

Data set [4] has as its system incorporation of [1-^14 C] acetate into cholesterol (nonsaponifiable extract) in intact rat liver cells. Description: Incorporation of [1-^14 C] acetate into cholesterol (nonsaponifiable extract) in intact liver cells. The format is cell-based. As for the experimental part: Duplicate samples contained 3.7 ml of hepatocyte suspension and 0.28 ml of saturated KHCO3 (pH […]) which contained varying final concentrations (0, 0.01, 0.10 or 1.0 mM) of trifluoro-HMG-CoA. Preincubation was conducted for 60 minutes. 10 μCi of [1-^14 C] sodium acetate, dissolved in Krebs Ringer bicarbonate buffer, was then added to each sample. Incubation was conducted for 120 minutes in a Dubnoff shaker. Saponification and extraction were conducted as previously described (4).

In data set [5] the target is T1, HMG-CoA reductase. Description: Liver microsomal HMG-CoA reductase activity in rats treated with trifluoro-HMG-CoA. The format is in vivo. The conditions noted are these: 0.2 mg per intraperitoneal injection, 6 days. As for the experimental part: (§1) Control rats received an injection of the vehicle (KHCO3 buffer) used for trifluoro-HMG-CoAinjection. Liver microsomes were isolated from these animals, and HMG-CoA reductase activity was measured. The control group average HMG-CoA reductase specific activity was 1.25 nmol mevalonate formed/min/mg protein. […] This difference was statistically significant at the p=0.005 level.
(§2) Twelve male rats of identical age were used. Six rats served as the control group; these rats received an intraperitoneal injection of KHCO3 buffer (0.2 ml) once per day (3:00 pm) for six days, except on the final day when additional injections were given at 10:00 pm and 6:00 am the following day. The drug-treated group of six rats received intraperitoneal injections of trifluoro-HMG-CoA (0.2 mg) in KHCO3 buffer (0.2 ml) on the same schedule as described above for the control group. The data were further analyzed by the t statistic between the mean for each group.

Data set [6] is described as follows: Total body weights and liver weights of treated and control rats. Format: in vivo, rat. The conditions noted are these: 0.2 mg per intraperitoneal injection, 6 days. As to the method: as §1, §2
Substrate in data set [7]: CC(O)(CC(=O)O)CC(=O)SCCNC(=O)CCNC(=O)[C@H](O)C(C)(C)COP(=O)(O)OP(=O)(O)OC[C@H]1O[C@@H](n2cnc3c(N)ncnc32)[C@H](O)[C@@H]1OP(=O)(O)O
Description: cells, lysate or membranes named. The conditions noted are these: other: absence of trifluoro-HMG-CoA; Eadie-Hofstee plot.

[8] abbreviates: 1 mM, crude soluble extract, relative potencies (Table VI), read-out: Inhibition of HMG-CoA reductase activity.

Where “and” joins values, the source holds several entries; their conditions need not be identical. Identical values can stand only once. Like-named read-outs stand apart in the source and are kept apart here.

Turning to `O=C(O)CC(O)(CC(=O)O)C(F)(F)F` [Trifluoro-HMG, 3-Hydroxy-3-Trifluoromethylglutaric Acid], the inhibition – broadly, the drop in the measured response relative to a control, in per cent – at 1000 µM in data set [1] (setting [8]) was determined as 11%.

Turning to `CC(C)(COP(=O)(O)OP(=O)(O)OC[C@H]1O[C@@H](n2cnc3c(N)ncnc32)[C@H](O)[C@@H]1OP(=O)(O)O)[C@@H](O)C(=O)NCCC(=O)NCCSC(=O)CC(O)(CC(=O)O)C(F)(F)F` (stereo partly drawn) [Trifluoro-HMG-CoA, 3-Hydroxy-3-Trifluoromethylglutaryl-Coenzyme A], the inhibition at 10 µM in data set [1] (0.01 mM, crude soluble extract) is 7%; in data set [4] (Rattus norvegicus, 0.01 mM, preincubation 60 minutes, incubation 120 minutes), 34%. For the same molecule, the HMG-CoA reductase activity in data set [1] (0.01 mM, crude soluble extract) is reported as 1.85 nmol mevalonate formed/min/ml; in data set [1] (0.10 mM, crude soluble extract), 1.29 nmol mevalonate formed/min/ml; in data set [1] (1.00 mM, crude soluble extract), 0.44 nmol mevalonate formed/min/ml. Moreover, the inhibition at 100 µM is 35% in data set [1] (0.10 mM, crude soluble extract) and 67% in data set [4] (Rattus norvegicus, 0.10 mM, preincubation 60 minutes, incubation 120 minutes). In addition, the “Relative potency versus the free acid [3-hydroxy-3-trifluoromethylglutaric acid]” value in data set [1] (1 mM, crude soluble extract) is “substantially more potent inhibitor than the free acid”. Further, the inhibition at 1000 µM in data set [1] (1.00 mM, crude soluble extract (Table I), read-out: Inhibition) was determined as 78%; in data set [1] (setting [8]) it was 78%; in data set [4] (Rattus norvegicus, 1.00 mM, preincubation 60 minutes, incubation 120 minutes), 88%. Moreover, the “Inhibition (in words)” value in data set [1] (0.1 and 1.0 mM, crude soluble extract) was “significant inhibition”. For the same molecule, at 1100 µM the inhibition in data set [2] was 73%. Further, the “HMG-CoA reductase specific activity” value in data set [2] (931.9 without inhibitor) was 253.5 nmol mevalonate formed/min/mg. Further, in data set [3] (rat liver microsomes, substrate HMG-CoA, Eadie-Hofstee plot), affinity was put at a Ki of 54 µM. Moreover, the Inhibition type result in data set [3] (versus natural substrate HMG-CoA) was “competitive inhibitor”. Further, the IC50 in data set [4] (Rattus norvegicus, calculated from the Table IV experiment, intact liver cells, read-out: Concentration for 50% inhibition of cholesterol formation) was about 40 µM. In addition, the “Inhibition of cholesterol formation (in words)” value in data set [4] (concentrations as low as 0.01 mM) is “significant inhibition of cholesterol formation”. Also, the “HMG-CoA reductase specific activity, average of treated rats” value in data set [5] (average of six rats, control average 1.25, p=0.005) was 0.63 nmol mevalonate formed/min/mg protein. The “HMG-CoA reductase specific activity, individual treated rats” value in data set [5] (individual rat) was 0.42 nmol mevalonate formed/min/mg protein and 0.59 nmol mevalonate formed/min/mg protein and 0.83 nmol mevalonate formed/min/mg protein and 0.58 nmol mevalonate formed/min/mg protein and 0.95 nmol mevalonate formed/min/mg protein and 0.40 nmol mevalonate formed/min/mg protein. Moreover, the “Total body weights and liver weights, treated versus control group” value in data set [6] is “not significantly different”.

Regarding `O=C1CC(O)(C(F)(F)F)CC(=O)O1` [Trifluoro-HMG-anhydride, 3-Hydroxy-3-Trifluoromethylglutaric Anhydride], the inhibition at 1000 µM in data set [1] (setting [8]) was 27%.

B1: rat liver microsomal HMG-CoA reductase (Rattus norvegicus) (protein)
chain: MLSRLFRMHGLFVASHPWEVIVGTVTLTICMMSMNMFTGNNKICGWNYECPKFEEDVLSSDIIILTITRCIAILYIYFQFQNLRQLGSKYILGIAGLFTIFSSFVFSTVVIHFLDKELTGLNEALPFFLLLIDLSRASALAKFALSSNSQDEVRENIARGMAILGPTFTLDALVECLVIGVGTMSGVRQLEIMCCFGCMSVLANYFVFMTFFPACVSLVLELSRESREGRPIWQLSHFARVLEEEENKPNPVTQRVKMIMSLGLVLVHAHSRWIADPSPQNSTAEQSKVSLGLAEDVSKRIEPSVSLWQFYLSKMISMDIEQVITLSLALLLAVKYIFFEQAETESTLSLKNPITSPVVTPKKAQDNCCRREPLLVRRNQKLSSVEEDPGVNQDRKVEVIKPLVAEAETSGRATFVLGASAASPPLALGAQEPGIELPSEPRPNEECLQILESAEKGAKFLSDAEIIQLVNAKHIPAYKLETLMETHERGVSIRRQLLSAKLAEPSSLQYLPYRDYNYSLVMGACCENVIGYMPIPVGVAGPLCLDGKEYQVPMATTEGCLVASTNRGCRAISLGGGASSRVLADGMSRGPVVRLPRACDSAEVKSWLETPEGFAVVKEAFDSTSRFARLQKLHVTLAGRNLYIRLQSKTGDAMGMNMISKGTEKALLKLQEFFPELQILAVSGNYCTDKKPAAINWIEGRGKTVVCEAVIPAKVVREVLKTTTEAMVDVNINKNLVGSAMAGSIGGYNAHAANIVTAIYIACGQDAAQNVGSSNCITLMEASGPTNEDLYISCTMPSIEIGTVGGGTNLLPQQACLQMLGVQGACKDNPGENARQLARIVCGTVMAGELSLMAALAAGHLVRSHMVHNRSKINLQDLQGTCTKKAA
With B1, the Km – broadly, the substrate concentration at which the rate is half of its maximum – in data set [7] is 34.5 µM.
